Data published in patent US20250353873A1, “COMPOUNDS AND METHODS FOR MODULATING APOE EXPRESSION” (Ionis Pharmaceuticals, Inc., priority 2024, published 2025).
Strand notation (5' to 3'): a small letter for the sugar, then the base; units joined by * are phosphorothioate-linked, units joined directly phosphodiester-linked; [ ] holds rarer units or linkages, { } end groups; capitals alone tell only the bases. [ms] = mesyl phosphoramidate linkage; e = 2'-O-(2-methoxyethyl) (MOE); [5mC] = 5-methylcytosine; d = 2'-deoxy (DNA)

Experiments:
human APOE RNA [1] = assay: Activity in APOE C57BL/6NTac-Apoeem7250 knock-in mice, single ICV bolus, 8 weeks (Example 11); format: in vivo; details: single ICV bolus 300 μg, 8 weeks post treatment, normalized to mouse Ppia
Protocol: Modified oligonucleotides described above were tested in the APOE C57BL/6NTac-Apoeem7250 knock-in mouse model described above.
Each mouse received a single ICV bolus of 300 μg of modified oligonucleotide. A group of 3-4 mice received a single ICV bolus with PBS as a negative control.
Eight weeks post treatment, mice were sacrificed and RNA was extracted from cortical brain tissue and spinal cord for quantitative real-time RT-PCR analysis of RNA expression of APOE using human primer probe set RTS3073 (described herein above). APOE RNA levels were normalized to mouse Ppia. Mouse Ppia was amplified using primer probe set m_cyclo24 (described herein above). Results are presented as percent human APOE RNA relative to the amount of human APOE RNA in PBS treated animals, (% control). Each experiment is identified in separate tables below.

human APOE RNA [2] = assay: Activity in APOE C57BL/6NTac-Apoeem7250 knock-in mice, single ICV bolus, 16 weeks (Example 12); format: in vivo; details: single ICV bolus 300 μg, 16 weeks post treatment, normalized to mouse Ppia
Outline: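 Knock-in mice (3-4 per group) received one ICV bolus of 300 μg oligonucleotide, PBS as control. After 16 weeks, human APOE RNA in cortex and spinal cord measured by RT-qPCR, normalized to mouse Ppia, and reported as % of PBS control.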

Substance	APOE RNA (% control) Cortex (human APOE RNA [1]) [% control]	APOE RNA (% control) Spinal Cord (human APOE RNA [1]) [% control]	APOE RNA (% control) Cortex (human APOE RNA [2]) [% control]	APOE RNA (% control) Spinal Cord (human APOE RNA [2]) [% control]
1693045: 5-10-5 MOE gapmer CTTGGTGAATCTTTATTAAA, linkages ssssozzzzssssssssss (antisense e[5mC]*eT*eT*eG*eGdT[ms]dG[ms]dA[ms]dA[ms]dT*d[5mC]*dT*dT*dT*dA*eT*eT*eA*eA*eA) [compound 1693045]	88	86	93	60
1681021: 5-10-5 MOE gapmer GGTGAATCTTTATTAAACTA, linkages zsssszsssszzssssssz (antisense eG[ms]eG*eT*eG*eA*dA[ms]dT*d[5mC]*dT*dT*dT[ms]dA[ms]dT*dT*dA*eA*eA*e[5mC]*eT[ms]eA) [compound 1681021]	55	68	91	40
1693041: 5-10-5 MOE gapmer CTTGGTGAATCTTTATTAAA, linkages ssossszzzssssssosss (antisense e[5mC]*eT*eTeG*eG*dT*dG[ms]dA[ms]dA[ms]dT*d[5mC]*dT*dT*dT*dA*eTeT*eA*eA*eA) [compound 1693041]	75	74	84	85
1693050: 5-10-5 MOE gapmer TTGGTGAATCTTTATTAAAC, linkages soosszzzsssssssosss (antisense eT*eTeGeG*eT*dG[ms]dA[ms]dA[ms]dT*d[5mC]*dT*dT*dT*dA*dT*eTeA*eA*eA*e[5mC]) [compound 1693050]	77	63	100	63
1693049: 5-10-5 MOE gapmer CTTGGTGAATCTTTATTAAA, linkages ssssszzzzssssszssss (antisense e[5mC]*eT*eT*eG*eG*dT[ms]dG[ms]dA[ms]dA[ms]dT*d[5mC]*dT*dT*dT*dA[ms]eT*eT*eA*eA*eA) [compound 1693049]	101	96	93	81
1693085: 6-10-4 MOE gapmer TTGGTGAATCTTTATTAAAC, linkages ssssszzzsssszzsssss (eT*eT*eG*eG*eT*eG[ms]dA[ms]dA[ms]dT*d[5mC]*dT*dT*dT[ms]dA[ms]dT*dT*eA*eA*eA*e[5mC]) [compound 1693085]	86	79	93	71
1693052: 5-10-5 MOE gapmer TTGGTGAATCTTTATTAAAC, linkages sossszzzsssssssosss (antisense eT*eTeG*eG*eT*dG[ms]dA[ms]dA[ms]dT*d[5mC]*dT*dT*dT*dA*dT*eTeA*eA*eA*e[5mC]) [compound 1693052]	65	79	91	85
1681020: 5-10-5 MOE gapmer GGTGAATCTTTATTAAACTA, linkages zsssszsssszzszssssz (antisense eG[ms]eG*eT*eG*eA*dA[ms]dT*d[5mC]*dT*dT*dT[ms]dA[ms]dT*dT[ms]dA*eA*eA*e[5mC]*eT[ms]eA) [compound 1681020]	63	35	92	59
1693084: 6-10-4 MOE gapmer TTGGTGAATCTTTATTAAAC, linkages ssssszzzszsszzsssss (eT*eT*eG*eG*eT*eG[ms]dA[ms]dA[ms]dT*d[5mC][ms]dT*dT*dT[ms]dA[ms]dT*dT*eA*eA*eA*e[5mC]) [compound 1693084]	72	115	89	86
1693042: 5-10-5 MOE gapmer CTTGGTGAATCTTTATTAAA, linkages sssosszzzssssssssss (antisense e[5mC]*eT*eT*eGeG*dT*dG[ms]dA[ms]dA[ms]dT*d[5mC]*dT*dT*dT*dA*eT*eT*eA*eA*eA) [compound 1693042]	77	81	90	65
